Assay results from PubChem BioAssay (NCI).
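1) Cells in 96-well plates. 2) Compound, 48 h, 5 concentrations. 3) Linear interpolation between surrounding doses. 4) Unreached endpoint = highest concentration. Abbreviation: GI50, concentration required for 50% inhibition of growth. TGI is the concentration that stops growth completely.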

Tested on: NCI-H460 lung
Assay: DTP human tumour cell line panel, 48 h

| Structure (SMILES) | GI50 [µM] | TGI [µM] |
| --- | --- | --- |
| Nc1cc(NN=C(c2ccc(O)cc2)c2ccc(O)cc2)c([N+](=O)[O-])cc1[N+](=O)[O-] | 1.79 | 3.47 |
| O=C1C=CC(=O)c2nc3c(cc21)CCC3 |  | > 100 |
| O=S(=O)(N/N=C/c1cccc(/C=N/NS(=O)(=O)c2ccccc2)c1)c1ccccc1 |  | > 100 |
| CCCCN(CCCC)C(=O)C(=O)C(C(=O)c1ccc(OC)cc1)c1ccc(OC)cc1 (stereo unspecified) |  | > 100 |
| C=C(C)CCOC(c1ccccc1)(c1ccccc1)c1ccccc1 |  | > 100 |
| COc1ccc(C)cc1-c1cc(Sc2ccccc2)c(-c2cc(C)ccc2OC)o1 |  | > 31.6 |
| Cn1ccc2c3c(Oc4ccc(NC(N)=O)cc4)ccnc3ccc21 | > 100 | > 100 |
| CC(=O)O/N=C(/C)c1ccccc1O |  | > 100 |
| CC(=O)OCCOCNC(=S)N/N=C(\C)c1cnccn1 |  | > 100 |
| O=C(Nc1ccccc1-c1nn(C(=S)Nc2ccccc2)c(=S)n(C(=S)Nc2ccccc2)c1=O)C(F)(F)F |  | > 100 |
| O=c1c(-c2ccccc2)c2oc(c1-c1ccccc1)CSCc1cccc(c1)CSC2 |  | > 100 |
| CN(C)CCn1c2c3ccccc3ccc2c2oc(=O)c3ccccc3c21 |  | 13.4 |

Tested on: MCF7 breast
Assay: DTP human tumour cell line panel, 48 h

| Structure (SMILES) | TGI [µM] | GI50 [µM] |
| --- | --- | --- |
| O=C(O)c1ccc2c(c1C(=O)O)C(=O)OC2(c1ccc(O)cc1)c1ccc(O)cc1 | > 100 |  |
| N#Cc1c[nH]n2c(N=Nc3ccc(Cl)cc3)c(O)nc12 | > 100 | 21 |
| O=S(=O)(c1ccccc1)N1CCN(S(=O)(=O)c2ccccc2)c2ccccc21 | > 100 |  |
| CCOC(=O)C1=C(C)N(c2ccc(F)cc2F)[C@]2(C#N)C(O)=C(Cl)C(Cl)=C(O)[C@]12C#N | > 100 | > 100 |
| Cc1csc(-c2nnc(Nc3ccc(Oc4ncccc4-c4ccnc(N)n4)cc3)c3ccccc23)c1 | > 100 | 0.13 |
| COc1cc(C2CC(C)(O)Oc3cc4c(cc32)OCO4)cc(OC)c1OC (stereo unspecified) | 23.6 |  |
| CC1SC(c2ccc(F)cc2)N(NC(=O)C(O)c2ccccc2)C1=O (stereo unspecified) | > 100 | > 100 |
| COCCOc1ccc(-c2nc3ccc(-c4nc5ccc(N6CCN(C)CC6)cc5[nH]4)cc3[nH]2)cc1 | 11.8 | 0.316 |
| Nc1cc(NN=C(c2ccc(O)cc2)c2ccc(O)cc2)c([N+](=O)[O-])cc1[N+](=O)[O-] | 3.28 | 1.56 |
| Cn1ccc2c3c(Oc4ccc(NC(N)=O)cc4)ccnc3ccc21 | > 100 | > 100 |

Tested on: UACC-257 melanoma
Assay: DTP human tumour cell line panel, 48 h

| Structure (SMILES) | TGI [µM] | GI50 [µM] |
| --- | --- | --- |
| COC(=O)CC(c1ccccc1)C1(c2ccccc2)SCCS1 (stereo unspecified) | > 290 |  |
| O=C(/C(=C/c1ccc([N+](=O)[O-])cc1)SCc1ccccc1)c1ccc(Cl)cc1 | 19.4 | 6.36 |
| CCOC(=O)C1=C(C(=O)OCC)C2c3ccccc3C=CN2C(C(=O)OCC)=C(SC)S1 (stereo unspecified) | > 100 |  |
| CC(=O)NNc1nc(C)c(C(=O)/C=C/c2ccc(NC(C)=O)cc2)s1 | > 100 |  |
| CCCCCC[C@@H]1CCC2C(CO)[C@@H](O)CC[C@@H]2C1 (stereo partly specified) | 31 |  |
| O=C(O)c1ccc2c(c1C(=O)O)C(=O)OC2(c1ccc(O)cc1)c1ccc(O)cc1 | > 100 |  |
| NC(=O)c1ccccc1NC(=O)C(=O)C(C(=O)c1ccc(Cl)c(Cl)c1)C1OC(=O)c2ccccc21 (stereo unspecified) | > 100 |  |
| N#Cc1c[nH]n2c(N=Nc3ccc(Cl)cc3)c(O)nc12 | 57.9 | 20.1 |
| O=S(=O)(c1ccccc1)N1CCN(S(=O)(=O)c2ccccc2)c2ccccc21 | > 100 |  |
| S=c1sc2c(n1-c1ccccc1)NC=NC2S (stereo unspecified) | > 100 |  |
| CCOC(=O)C1=C(C)N(c2ccc(F)cc2F)[C@]2(C#N)C(O)=C(Cl)C(Cl)=C(O)[C@]12C#N | > 100 | > 100 |
| Cc1csc(-c2nnc(Nc3ccc(Oc4ncccc4-c4ccnc(N)n4)cc3)c3ccccc23)c1 | > 100 |  |
| Cc1ccc(/C=C/C(=O)CCN(C)C)cc1 | 31 |  |
| COc1cc(C2CC(C)(O)Oc3cc4c(cc32)OCO4)cc(OC)c1OC (stereo unspecified) | > 100 |  |
| Cc1ccc(Oc2ccc(C)cc2N)cc1 | > 100 |  |
| c1ccc(NCn2cnc3ccccc32)cc1 | > 100 |  |
| CC1SC(c2ccc(F)cc2)N(NC(=O)C(O)c2ccccc2)C1=O (stereo unspecified) | > 100 | > 100 |
| Cc1cc2c(C)[nH]nc2c(C(=O)O)c1C | > 100 |  |
| N#C/C(=C\c1cccc(Cl)c1Cl)c1ccccc1 | > 100 |  |
| COCCOc1ccc(-c2nc3ccc(-c4nc5ccc(N6CCN(C)CC6)cc5[nH]4)cc3[nH]2)cc1 | 5.92 | 1.71 |
| C/C(=N/Nc1ccc([N+](=O)[O-])cc1[N+](=O)[O-])C(CC(C(=O)NCc1ccccc1)/C(C)=N\Nc1ccc([N+](=O)[O-])cc1[N+](=O)[O-])C(=O)NCc1ccccc1 (stereo unspecified) | 18 |  |

| Structure (SMILES) | TGI [µM] | GI50 [µM] |
| --- | --- | --- |
| N[C@@H]1CCCC[C@@H]1N.O=P([O-])([O-])CN(CCN(CP(=O)([O-])[O-])CP(=O)([O-])[O-])CP(=O)([O-])[O-].[Pt+2] | > 25 | > 25 |
| COc1ccc(OC)c(N2CC(N)C2=O)c1 (stereo unspecified) | > 100 |  |
| O=C(/C=C/c1ccc([N+](=O)[O-])cc1)c1ccc(NCc2nc3ccccc3[nH]2)cc1 | 13.8 |  |
| Cc1cccc(C)c1NC(=O)CCCC(=O)C1/C(=N/NC(=O)CC#N)CCC/C1=N\NC(=O)CC#N (stereo unspecified) | > 100 |  |
| O=c1ccc2ccccc2cc1[O-].O=c1ccc2ccccc2cc1[O-].[O]=[U+2]=[O] | 44.3 | 6.19 |
| Cc1ccc(-n2c3nc(=O)[nH]c(=O)c-3cc3cc([N+](=O)[O-])ccc32)cc1 | 70.9 | 26.7 |
| COC(=O)C(CCCN1C(=O)c2ccccc2C1=O)C(=O)OC | > 100 |  |
| COc1nc(NC2OC(COC(C)=O)C(OC(C)=O)C(OC(C)=O)C2OC(C)=O)c2c(OC(C)=O)cc(=O)oc2n1 (stereo unspecified) | > 100 |  |
| CC(C)(C)c1cc2c(O)c3cccc4c(=O)c5cccc6c5-c(c34)c2c(c1)c6=O | > 100 |  |
| Nc1cc(NN=C(c2ccc(O)cc2)c2ccc(O)cc2)c([N+](=O)[O-])cc1[N+](=O)[O-] | 17.1 | 4.3 |
| O=C1C=CC(=O)c2nc3c(cc21)CCC3 | 33.9 |  |
| O=S(=O)(N/N=C/c1cccc(/C=N/NS(=O)(=O)c2ccccc2)c1)c1ccccc1 | > 100 |  |
| CCCCN(CCCC)C(=O)C(=O)C(C(=O)c1ccc(OC)cc1)c1ccc(OC)cc1 (stereo unspecified) | > 100 |  |
| C=C(C)CCOC(c1ccccc1)(c1ccccc1)c1ccccc1 | 80.5 |  |
| COc1ccc(C)cc1-c1cc(Sc2ccccc2)c(-c2cc(C)ccc2OC)o1 | > 31.6 |  |
| Cn1ccc2c3c(Oc4ccc(NC(N)=O)cc4)ccnc3ccc21 | > 100 | > 100 |
| CC(=O)O/N=C(/C)c1ccccc1O | > 100 |  |
| CC(=O)OCCOCNC(=S)N/N=C(\C)c1cnccn1 | > 100 |  |
| O=C(Nc1ccccc1-c1nn(C(=S)Nc2ccccc2)c(=S)n(C(=S)Nc2ccccc2)c1=O)C(F)(F)F | 31.4 |  |
| O=c1c(-c2ccccc2)c2oc(c1-c1ccccc1)CSCc1cccc(c1)CSC2 | > 100 |  |
| CN(C)CCn1c2c3ccccc3ccc2c2oc(=O)c3ccccc3c21 | 16.4 |  |

Tested on: CCRF-CEM leukemia
Assay: DTP human tumour cell line panel, 48 h

| Structure (SMILES) | TGI [µM] | GI50 [µM] |
| --- | --- | --- |
| COC(=O)CC(c1ccccc1)C1(c2ccccc2)SCCS1 (stereo unspecified) | > 290 |  |
| O=C(/C(=C/c1ccc([N+](=O)[O-])cc1)SCc1ccccc1)c1ccc(Cl)cc1 | > 100 | 2.12 |
| CCOC(=O)C1=C(C(=O)OCC)C2c3ccccc3C=CN2C(C(=O)OCC)=C(SC)S1 (stereo unspecified) | > 100 |  |
| CC(=O)NNc1nc(C)c(C(=O)/C=C/c2ccc(NC(C)=O)cc2)s1 | > 100 |  |
| CCCCCC[C@@H]1CCC2C(CO)[C@@H](O)CC[C@@H]2C1 (stereo partly specified) | 79.9 |  |
| O=C(O)c1ccc2c(c1C(=O)O)C(=O)OC2(c1ccc(O)cc1)c1ccc(O)cc1 | > 100 |  |
| NC(=O)c1ccccc1NC(=O)C(=O)C(C(=O)c1ccc(Cl)c(Cl)c1)C1OC(=O)c2ccccc21 (stereo unspecified) | > 100 |  |
| N#Cc1c[nH]n2c(N=Nc3ccc(Cl)cc3)c(O)nc12 | > 100 | 31.1 |
| S=c1sc2c(n1-c1ccccc1)NC=NC2S (stereo unspecified) | > 100 |  |
| CCOC(=O)C1=C(C)N(c2ccc(F)cc2F)[C@]2(C#N)C(O)=C(Cl)C(Cl)=C(O)[C@]12C#N | > 100 | 28.8 |
| Cc1csc(-c2nnc(Nc3ccc(Oc4ncccc4-c4ccnc(N)n4)cc3)c3ccccc23)c1 | > 100 | 0.234 |
| Cc1ccc(/C=C/C(=O)CCN(C)C)cc1 | 72.4 |  |
| COc1cc(C2CC(C)(O)Oc3cc4c(cc32)OCO4)cc(OC)c1OC (stereo unspecified) | > 100 |  |
| Cc1ccc(Oc2ccc(C)cc2N)cc1 | > 100 |  |
